According to PubChem BioAssay AID252 (DTP/NCI, 2004):
Several values for one entry are separate records, joined by “and”; a condition that tells them apart may be missing. Identical values can stand only once. Inconclusive results and toxic doses are left out.

Test system: BDF1 mice, intracerebral L1210 leukemia, survival T/C
Test: NCI In Vivo Anticancer Drug Screen. Data for tumor model L1210 Leukemia (intracerebral) in B6D2F1 (BDF1) mice
Details: higher = longer survival
In short: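 Mice carrying transplanted tumour were dosed with compound; survival was recorded and expressed as treated-group value (T) divided by vehicle-control value (C).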

[1] = endpoint: mean survival time, dose: 25.0 mg/kg/injection, schedule: Q01DX001 (ip), vehicle: other

For `CCCCCCCCCCCCCCCC(=O)OCC1OC(n2ccc(N)nc2=O)C(O)C1O` (stereo not drawn), the T/C (endpoint: mean survival time, dose: 5.0 mg/kg/injection, schedule: Q01DX005 (ip), vehicle: other) was 111 % of control (2×) and 117 % of control, the T/C (endpoint: mean survival time, dose: 20.0 mg/kg/injection, schedule: Q01DX005 (ip), vehicle: other) was 154 % of control and 177 % of control and 180 % of control and the T/C [1] was 110 % of control and 112 % of control and 116 % of control. The T/C (endpoint: mean survival time, dose: 25.0 mg/kg/injection, schedule: Q01DX005 (ip), vehicle: other) was 171 % of control and 192 % of control and 202 % of control, the T/C (endpoint: mean survival time, dose: 30.0 mg/kg/injection, schedule: Q01DX005 (ip), vehicle: other) was 169 % of control and 204 % of control and 242 % of control and the T/C (endpoint: mean survival time, dose: 35.0 mg/kg/injection, schedule: Q01DX005 (ip), vehicle: other) was 201 % of control and 211 % of control and 214 % of control. The T/C (endpoint: mean survival time, dose: 100.0 mg/kg/injection, schedule: Q01DX001 (ip), vehicle: other) was 166 % of control, the T/C (endpoint: mean survival time, dose: 150.0 mg/kg/injection, schedule: Q01DX001 (ip), vehicle: other) was 173 % of control and 191 % of control and 213 % of control and the T/C (endpoint: mean survival time, dose: 200.0 mg/kg/injection, schedule: Q01DX001 (ip), vehicle: other) was 170 % of control and 216 % of control and 242 % of control. The T/C (endpoint: mean survival time, dose: 250.0 mg/kg/injection, schedule: Q01DX001 (ip), vehicle: other) was 161 % of control and 195 % of control and 222 % of control, the T/C (endpoint: median survival time, dose: 25.0 mg/kg/injection, schedule: Q01DX009 (ip), vehicle: saline with Tween-80) was 295 % of control and the T/C (endpoint: median survival time, dose: 50.0 mg/kg/injection, schedule: Q01DX009 (ip), vehicle: saline with Tween-80) was 106 % of control.
With `C1CN1c1nc(N2CC2)nc(N2CC2)n1` the T/C (endpoint: mean survival time, dose: 0.15 mg/kg/injection, schedule: Q01DX Z (ip), vehicle: saline) was 113 % of control, the T/C (endpoint: mean survival time, dose: 0.25 mg/kg/injection, schedule: Q01DX Z (ip), vehicle: saline) was 119 % of control and the T/C (endpoint: mean survival time, dose: 0.5 mg/kg/injection, schedule: Q01DX Z (ip), vehicle: saline) was 160 % of control. For the same molecule, the T/C (endpoint: mean survival time, dose: 0.75 mg/kg/injection, schedule: Q01DX Z (ip), vehicle: saline) was 156 % of control, the T/C (endpoint: mean survival time, dose: 1.0 mg/kg/injection, schedule: Q01DX Z (ip), vehicle: saline) was 124 % of control and the T/C (endpoint: mean survival time, dose: 1.5 mg/kg/injection, schedule: Q01DX Z (ip), vehicle: saline) was 97 % of control. For the same molecule, the T/C (endpoint: mean survival time, dose: 2.1 mg/kg/injection, schedule: Q01DX001 (ip), vehicle: saline) was 153 % of control and the T/C (endpoint: mean survival time, dose: 3.2 mg/kg/injection, schedule: Q01DX001 (ip), vehicle: saline) was 182 % of control.
For `COc1cc(NS(C)(=O)=O)ccc1Nc1c2ccccc2nc2ccccc12`, the T/C (endpoint: mean survival time, dose: 0.5 mg/kg/injection, schedule: Q01DX009 (ip), vehicle: other) was 98 % of control, the T/C (endpoint: mean survival time, dose: 0.75 mg/kg/injection, schedule: Q01DX009 (ip), vehicle: saline) was 100 % of control and the T/C (endpoint: mean survival time, dose: 0.75 mg/kg/injection, schedule: Q01DX009 (sc), vehicle: saline) was 101 % of control. For the same molecule, the T/C (endpoint: mean survival time, dose: 1.0 mg/kg/injection, schedule: Q01DX009 (ip), vehicle: other) was 92 % of control, the T/C (endpoint: mean survival time, dose: 1.25 mg/kg/injection, schedule: Q01DX009 (ip), vehicle: saline) was 97 % of control and the T/C (endpoint: mean survival time, dose: 1.25 mg/kg/injection, schedule: Q01DX009 (sc), vehicle: saline) was 94 % of control. The T/C (endpoint: mean survival time, dose: 1.5 mg/kg/injection, schedule: Q01DX009 (ip), vehicle: saline) was 100 % of control, the T/C (endpoint: mean survival time, dose: 1.5 mg/kg/injection, schedule: Q01DX009 (sc), vehicle: saline) was 93 % of control and the T/C (endpoint: mean survival time, dose: 1.8 mg/kg/injection, schedule: Q01DX009 (ip), vehicle: water) was 92 % of control. The T/C (endpoint: mean survival time, dose: 2.0 mg/kg/injection, schedule: Q01DX009 (ip), vehicle: other) was 105 % of control, the T/C (endpoint: mean survival time, dose: 2.5 mg/kg/injection, schedule: Q01DX009 (ip), vehicle: saline) was 108 % of control and 97 % of control and the T/C (endpoint: mean survival time, dose: 2.5 mg/kg/injection, schedule: Q01DX009 (sc), vehicle: saline) was 98 % of control and 95 % of control. For the same molecule, the T/C (endpoint: mean survival time, dose: 3.0 mg/kg/injection, schedule: Q01DX009 (ip), vehicle: saline) was 102 % of control, the T/C (endpoint: mean survival time, dose: 3.0 mg/kg/injection, schedule: Q01DX009 (ip), vehicle: water) was 88 % of control and the T/C (endpoint: mean survival time, dose: 3.0 mg/kg/injection, schedule: Q01DX009 (sc), vehicle: saline) was 92 % of control. The T/C (endpoint: mean survival time, dose: 5.0 mg/kg/injection, schedule: Q01DX009 (ip), vehicle: saline) was 121 % of control and 108 % of control, the T/C (endpoint: mean survival time, dose: 5.0 mg/kg/injection, schedule: Q01DX009 (sc), vehicle: saline) was 101 % of control and 93 % of control and the T/C (endpoint: mean survival time, dose: 6.0 mg/kg/injection, schedule: Q01DX009 (ip), vehicle: saline) was 104 % of control. The T/C (endpoint: mean survival time, dose: 6.0 mg/kg/injection, schedule: Q01DX009 (sc), vehicle: saline) was 96 % of control, the T/C (endpoint: mean survival time, dose: 10.0 mg/kg/injection, schedule: Q01DX009 (ip), vehicle: saline) was 111 % of control and the T/C (endpoint: mean survival time, dose: 10.0 mg/kg/injection, schedule: Q01DX009 (sc), vehicle: saline) was 100 % of control and 98 % of control. The T/C (endpoint: mean survival time, dose: 20.0 mg/kg/injection, schedule: Q01DX009 (sc), vehicle: saline) was 109 % of control.
With `c1nc(SSc2ncnc3nc[nH]c23)c2[nH]cnc2n1` the T/C (endpoint: mean survival time, dose: 75.0 mg/kg/injection, schedule: Q04DX003 (ip), vehicle: Klucel (hydroxypropylcellulose) (HPC)) was 108 % of control.
With `O=NN(CCF)C(=O)NC1CS(=O)(=O)CS(=O)(=O)C1` the T/C (endpoint: mean survival time, dose: 11.0 mg/kg/injection, schedule: Q01DX001 (ip), vehicle: other) was 113 % of control, the T/C (endpoint: mean survival time, dose: 17.0 mg/kg/injection, schedule: Q01DX001 (ip), vehicle: other) was 117 % of control and the T/C [1] was 120 % of control.
In the case of `O=c1n(CC2CO2)c(=O)n(CC2CO2)c(=O)n1CC1CO1` (stereo not drawn), the T/C (endpoint: median survival time, dose: 40.0 mg/kg/injection, schedule: Q01DX009 (ip), vehicle: saline) is reported as 151 % of control, the T/C (endpoint: median survival time, dose: 70.0 mg/kg/injection, schedule: Q01DX009 (ip), vehicle: saline) is reported as 121 % of control and the T/C (endpoint: median survival time, dose: 80.0 mg/kg/injection, schedule: Q01DX009 (ip), vehicle: saline) is reported as 121 % of control. For the same molecule, the T/C (endpoint: median survival time, dose: 90.0 mg/kg/injection, schedule: Q01DX009 (ip), vehicle: saline) was 122 % of control.
`Cc1cccc(C)c1NC(=O)N(CCCl)N=O` was tested, and the T/C (endpoint: mean survival time, dose: 13.0 mg/kg/injection, schedule: Q01DX001 (ip), vehicle: carboxymethylcellulose (CMC)) was 113 % of control, the T/C (endpoint: mean survival time, dose: 20.0 mg/kg/injection, schedule: Q01DX001 (ip), vehicle: carboxymethylcellulose (CMC)) was 112 % of control and the T/C (endpoint: mean survival time, dose: 30.0 mg/kg/injection, schedule: Q01DX001 (ip), vehicle: carboxymethylcellulose (CMC)) was 119 % of control.
